# PubChem BioAssay (NCI)
#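 Briefly, cells in 96-well plates were exposed to five compound concentrations for 48 h, and endpoints were estimated by linear interpolation. Here, GI50 denotes the concentration required for 50% inhibition of growth. At the TGI there is no net growth.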
# Assays:
# Assay in all cases: DTP human tumour cell line panel, 48 h
# [1] = test system: MCF7 breast
# [2] = test system: SF-295 CNS
# [3] = test system: TK-10 renal
# [4] = test system: SR leukemia
# [5] = test system: HOP-62 NSCLC
# [6] = test system: HL-60(TB) leukemia
# [7] = test system: NCI-H226 lung
# [8] = test system: DU-145 prostate
# [9] = test system: NCI-H460 lung
# [10] = test system: A498 renal
# [11] = test system: LOX IMVI melanoma
# [12] = test system: OVCAR-3 ovarian
# [13] = test system: RPMI-8226 leukemia
# [14] = test system: SK-OV-3 ovarian
# [15] = test system: COLO 205 colon
# [16] = test system: A549 NSCLC
# [17] = test system: SNB-19 CNS
# [18] = test system: ACHN renal
# [19] = test system: PC-3 prostate
# [20] = test system: M14 melanoma
# [21] = test system: OVCAR-8 ovarian
# [22] = test system: HOP-92 NSCLC
# [23] = test system: SNB-75 CNS
# [24] = test system: MALME-3M melanoma
# [25] = test system: RXF 393 renal
# [26] = test system: HS 578T breast
# [27] = test system: HT29 colon
# [28] = test system: BT-549 breast
# [29] = test system: KM12 colon
# [30] = test system: MDA-MB-435
# [31] = test system: SF-539 CNS
# [32] = test system: HCC-2998 colon
# [33] = test system: CCRF-CEM leukemia
# [34] = test system: T-47D breast
# [35] = test system: MOLT-4 leukemia
# [36] = test system: SK-MEL-28 melanoma
# [37] = test system: 786-0 renal
# [38] = test system: SN12C renal
# [39] = test system: U251 CNS
# [40] = test system: NCI-H522 lung
# [41] = test system: UACC-257 melanoma
# [42] = test system: NCI/ADR-RES ovarian
# [43] = test system: SF-268 CNS
# [44] = test system: SW-620 colon
# [45] = test system: SK-MEL-5 melanoma
# [46] = test system: SK-MEL-2 melanoma
# [47] = test system: UO-31 renal
# [48] = test system: HCT-15 colon
# [49] = test system: NCI-H23 lung
# [50] = test system: OVCAR-5 ovarian
# [51] = test system: HCT-116 colon
# [52] = test system: EKVX NSCLC
# [53] = test system: IGROV1 ovarian
# [54] = test system: MDA-MB-231 breast
# [55] = test system: OVCAR-4 ovarian
# [56] = test system: UACC-62 melanoma
smiles,measurement,setting,value
CCN(Cc1ccccc1)c1ccc(/C=C2\COc3ccccc3C2=O)cc1,GI50,[1],69.4 µM
same,TGI,[1],> 1000 µM
same,GI50,[2],> 1000 µM
same,TGI,[2],> 1000 µM
same,GI50,[3],> 1000 µM
same,TGI,[3],> 1000 µM
same,GI50,[4],54 µM
same,TGI,[4],> 1000 µM
same,GI50,[5],> 1000 µM
same,TGI,[5],> 1000 µM
same,GI50,[6],221 µM
same,TGI,[6],> 1000 µM
same,GI50,[7],> 1000 µM
same,TGI,[7],> 1000 µM
same,GI50,[8],> 1000 µM
same,TGI,[8],> 1000 µM
same,GI50,[9],> 1000 µM
same,TGI,[9],> 1000 µM
same,GI50,[10],> 1000 µM
same,TGI,[10],> 1000 µM
same,GI50,[11],243 µM
same,TGI,[11],> 1000 µM
same,GI50,[12],288 µM
same,TGI,[12],> 1000 µM
same,GI50,[13],146 µM
same,TGI,[13],> 1000 µM
same,GI50,[14],> 1000 µM
same,TGI,[14],> 1000 µM
same,GI50,[15],> 1000 µM
same,TGI,[15],> 1000 µM
same,GI50,[16],> 1000 µM
same,TGI,[16],> 1000 µM
same,GI50,[17],> 1000 µM
same,TGI,[17],> 1000 µM
same,GI50,[18],> 1000 µM
same,TGI,[18],> 1000 µM
same,GI50,[19],343 µM
same,TGI,[19],> 1000 µM
same,GI50,[20],330 µM
same,TGI,[20],> 1000 µM
same,GI50,[21],> 1000 µM
same,TGI,[21],> 1000 µM
same,GI50,[22],553 µM
same,TGI,[22],> 1000 µM
same,GI50,[23],> 1000 µM
same,TGI,[23],> 1000 µM
same,GI50,[24],> 1000 µM
same,TGI,[24],> 1000 µM
same,GI50,[25],758 µM
same,TGI,[25],> 1000 µM
same,GI50,[26],> 1000 µM
same,TGI,[26],> 1000 µM
same,GI50,[27],135 µM
same,TGI,[27],> 1000 µM
same,GI50,[28],340 µM
same,TGI,[28],> 1000 µM
same,GI50,[29],376 µM
same,TGI,[29],> 1000 µM
same,GI50,[30],47 µM
same,TGI,[30],458 µM
same,GI50,[31],> 1000 µM
same,TGI,[31],> 1000 µM
same,GI50,[32],> 1000 µM
same,TGI,[32],> 1000 µM
same,GI50,[33],73.5 µM
same,TGI,[33],> 1000 µM
same,GI50,[34],213 µM
same,TGI,[34],> 1000 µM
same,GI50,[35],105 µM
same,TGI,[35],> 1000 µM
same,GI50,[36],> 1000 µM
same,TGI,[36],> 1000 µM
same,GI50,[37],> 1000 µM
same,TGI,[37],> 1000 µM
same,GI50,[38],> 1000 µM
same,TGI,[38],> 1000 µM
same,GI50,[39],> 1000 µM
same,TGI,[39],> 1000 µM
same,GI50,[40],156 µM
same,TGI,[40],> 1000 µM
same,GI50,[41],> 1000 µM
same,TGI,[41],> 1000 µM
same,GI50,[42],351 µM
same,TGI,[42],> 1000 µM
same,GI50,[43],> 1000 µM
same,TGI,[43],> 1000 µM
same,GI50,[44],146 µM
same,TGI,[44],> 1000 µM
same,GI50,[45],398 µM
same,TGI,[45],> 1000 µM
same,GI50,[46],> 1000 µM
same,TGI,[46],> 1000 µM
same,GI50,[47],286 µM
same,TGI,[47],> 1000 µM
same,GI50,[48],106 µM
same,TGI,[48],> 1000 µM
same,GI50,[49],818 µM
same,TGI,[49],> 1000 µM
same,GI50,[50],> 1000 µM
same,TGI,[50],> 1000 µM
same,GI50,[51],270 µM
same,TGI,[51],> 1000 µM
same,GI50,[52],538 µM
same,TGI,[52],> 1000 µM
same,GI50,[53],> 1000 µM
same,TGI,[53],> 1000 µM
same,GI50,[54],896 µM
same,TGI,[54],> 1000 µM
same,GI50,[55],761 µM
same,TGI,[55],> 1000 µM
same,GI50,[56],304 µM
same,TGI,[56],> 1000 µM
